# Experimental data reported in PubChem BioAssay (NCI).
#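 Each compound was tested at five concentrations against cells in 96-well plates for 48 hours. Here, GI50 denotes the concentration required for 50% inhibition of growth. TGI marks complete inhibition of growth.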
# Assays:
# Assay in all cases: NCI tumour cell line growth inhibition, 48 h
# SK-MEL-5 melanoma = system: SK-MEL-5 melanoma
# UACC-62 melanoma = system: UACC-62 melanoma
# HL-60(TB) leukemia = system: HL-60(TB) leukemia
# DU-145 prostate = system: DU-145 prostate
# SK-MEL-2 melanoma = system: SK-MEL-2 melanoma
# OVCAR-5 ovarian = system: OVCAR-5 ovarian
# NCI-H522 lung = system: NCI-H522 lung
# MDA-MB-231 breast = system: MDA-MB-231 breast
# NCI-H460 lung = system: NCI-H460 lung
# MDA-MB-435 = system: MDA-MB-435
Structure (SMILES),GI50 (SK-MEL-5 melanoma) [µM],TGI (SK-MEL-5 melanoma) [µM],GI50 (UACC-62 melanoma) [µM],TGI (UACC-62 melanoma) [µM],GI50 (HL-60(TB) leukemia) [µM],TGI (HL-60(TB) leukemia) [µM],GI50 (DU-145 prostate) [µM],TGI (DU-145 prostate) [µM],GI50 (SK-MEL-2 melanoma) [µM],TGI (SK-MEL-2 melanoma) [µM],GI50 (OVCAR-5 ovarian) [µM],TGI (OVCAR-5 ovarian) [µM],GI50 (NCI-H522 lung) [µM],TGI (NCI-H522 lung) [µM],GI50 (MDA-MB-231 breast) [µM],TGI (MDA-MB-231 breast) [µM],GI50 (NCI-H460 lung) [µM],TGI (NCI-H460 lung) [µM],GI50 (MDA-MB-435) [µM],TGI (MDA-MB-435) [µM]
COc1cc(C2NC(=O)c3ccccc3N2)ccc1OCCCCCOc1c(OC)cc(C2=NOC(c3cc(OC)c(OC)c(OC)c3)C2)cc1OC (centres undefined),0.142,0.546,0.506,> 100,11.7,> 53.9,22.5,> 82.7,35.9,> 100,33.9,> 94.3,17.1,> 56.2,14.8,> 75.4,14.2,67.2,0.499,> 100
CC(C)c1nc(CN(C)C(=O)N[C@H](C(=O)N[C@@H](Cc2ccccc2)C[C@H](O)[C@H](Cc2ccccc2)NC(=O)OCc2cncs2)C(C)C)cs1,17.1,33.5,18.5,34.9,12.2,36.9,1.42,–,31.7,> 100,28.2,71.5,28.7,> 81,18,35.1,17.5,55.7,20.1,57.4
COc1ccc(-c2cc(=O)c3ccc(O)cc3o2)cc1OC,–,41.8,–,> 100,–,> 100,–,> 100,–,> 100,–,> 100,–,> 100,–,> 100,–,> 100,–,> 100
O=c1[nH]ncc(Br)c1Br,4.38,15.9,1.27,2.58,2.22,4.27,3.31,15.3,2.16,5.62,1.69,3.08,1.71,3.25,1.68,3.56,13.1,27.4,2.2,6.2
CN1CCN(C)C12C=c1ccccc1=CC21CC1,–,51.1,–,34,–,46.1,–,> 100,–,53.7,–,> 100,–,52.9,–,> 100,–,> 75.1,–,48.3
Cn1c(=O)c2[nH]c(SCc3ccccn3)nc2n(C)c1=S,–,> 100,–,> 100,–,> 100,–,> 100,–,> 100,–,> 100,–,> 100,–,> 100,–,> 100,–,> 100
Oc1ccc(CN2CCC(N3CCCCC3)CC2)c2cccnc12,15.8,75.9,4.87,67.5,6.86,46.7,6.64,> 100,27.9,> 100,45.4,> 100,3.43,43.9,22.4,> 100,4.01,> 100,4.63,> 100
N#CSc1c[nH]c2cccc(/C=C/C(=O)/C=C(/C=C/c3cccc4[nH]cc(SC#N)c34)OB(F)F)c12,1.23,2.92,0.628,2.56,0.293,5.25,1.1,2.63,2.4,5.9,1.81,6.91,0.207,0.501,0.442,1.57,1.12,6.13,0.27,0.869
